Measurements: patent US20030013658A1, “Small peptides and methods for treatment of asthma and inflammation” (Hisatek, LLC, priority 1997, published 2003)

Assays:
Assay type in all cases: in vivo
[1] = tested on: OVA-sensitized/challenged mice; assay: OVA allergen-induced airway inflammation mouse model, 28-day protocol, HK-X i.n. before each challenge; settings: p<0.004; FIG. 11
Description: The above-described murine model reproduces key features of human asthma. Late-phase allergen-specific pulmonary disease was induced in normal BALB/c mice using ovalbumin (OVA) as allergen. One protocol includes immunization of mice with i.p. OVA on […] and 14, and intranasal (i.n.) administration of OVA on days 14, 25, 26, and 27.
In a mouse model of allergen-induced airway inflammation, the role of mast cell in airway eosinophil infiltration, mucus release, and hyper-responsiveness to methacholine was examined.
Materials were used as described above. Mice received an i.p. injection of 0.2 ml (100 ug) of OVA complexed with aluminum potassium sulfate (alum) on day 0 and 14. On days 14, 25, 26, and 27, mice were anesthetized with 0.2 ml i.p. of ketamine (0.44 mg/ml)/xylazine (6.3 mg/ml) in normal saline before receiving an intranasal (i.n.) dose of 100 ug OVA in 0.05 ml normal saline on days 25, 26, and 27. Lung tissue was obtained 24 hours after the last i.n. challenge on day 28. The control group received normal saline with alum i.p. on days 0 and 14 and normal saline without alum i.n. on days 14, 25, 26, and 27. To assess the effect of HK-X inhibition on OVA induced asthma, HK-X (10 ug/ml) was given i.n. 30 minutes before each i.n challenge on days 25, 26, and 27.
After tying off the left lung at the mainstem bronchus, the right lung was […] three times with 0.4 ml of normal saline, Bronchoalveolar lavage (BAL) fluid cells from a 0.05 ml aliquot of the pooled sample were counted using a hemocytometer and the remaining fluid centrifuged at 4° C. for 10 minutes at 200 g. After resuspension of the cell pellet in normal saline containing 10% BSA, BAL cell smears were made on glass slides. To stain eosinophils, dried slides were stained with Discombe's diluting fluid (0.05% aqueous eosin and 5% (v/v) acetone in distilled water) for 5-8 minutes, rinsed with water for 0.5 minutes and counterstained with 0.07 methylene blue for 2 minutes.
Following BAL, the trachea and left lung (upper and lower lobes) were obtained and fixed in 10% buffered formalin solution at 20° C. for1S hours. After the tissues were processed and embeded in paraffin, the tissues were cut into 5 μm sections and stained with Discombe's solution and counterstained with methylene blue as described above or stained with Hematoxylin and eosin. The eosinophil number per unit airway area (2200 μm^2) was determined by morphometry as previously described. Airway mucus was identified by a variety of staining methods, i.e., methylene blue, Hematoxylin and eosin, mucicarmine, toluidine blue, alcian blue, and alcian blue/periodic acid Schiff (PAS) reaction. Mucin was stained with mucicarmine solution; metanil yellow counterstain was employed. Mucin and sialic acid-rich non-sulfated mucosubstances were stained metachromatically with toluidine blue, pH 4.5. Acidic mucin and sulfated mucosubstances were stained with alcian blue, pH 2.5; nuclear fast red counterstain was used. Neutral and acidic mucosubstances were identified by alcian blue, pH 2.5 and PAS reaction. The degree of mucus plugging of the airways (0.5˜0.8 mm in diameter) also was assessed by morphometry. The percent occlusion of airway diameter by mucus was classified on a semiquantitative scale from 0 to +++++. The histologic and morphometric analyses protocol design were performed by individuals blinded to the protocol design.
Mucus glycoproteins in BAL fluid were assayed by slot blotting and PAS staining as described. Nitrocellulose membranes (0.2 um pore size; Schleicher & Schuell, Keene, N.H.) were wetted in distilled water and then in normal saline before placement in a Minifold II 72-well slot blot apparatus (Schleicher & Schuell). The BAL fluid samples (0.05 ml) and aliquots (0.05-0.75 ml) of a stock solution (2 ug/ml) of human respiratory mucin glycoprotein were blotted onto the nitrocellulose membranes by water suction vacuum, and mucus glycoproteins were visualized by PAS reaction. […]

[2] = tested on: OVA-sensitized/challenged mice; assay: OVA-induced bronchial asthma mouse model (Standard/Resolution protocols, 1-3 month), airway eosinophils and mucus plugs
Description: The OVA-induced Bronchial Asthma Mouse Model for Inhibition of Mast Cell Degranulation
Reagents: Crystalline OVA was obtained from Pierce Chem. Co. (Rockford, Ill.) aluminum potassium sulfate (alum) from Sigma Chem. Co. (St. Louis, Mo.), pyrogen-free distilled water from Baxter, Healthcare Corporation (Deerfield, Ill.), 0.9% sodium chloride (normal saline) from Lymphomed (Deerfield, Ill.) and Trappsol™ HPB-L100 (aqueous hydroxypropyl beta cyclodextrin; 45 wt/vol % aqueous solution) from Cyclodextrin Technologies Development, Inc. (Gainesville, Fla.). The OVA (500 μg/ml in normal saline) was mixed with equal volumes of 10% (wt/vol) alum in distilled water. The mixture (pH 6.5 using 10 N NaOH) after incubation for 60 minutes at room temperature underwent centrifugation at 750 g for 5 minutes; the pellet was resuspended to the original volume in distilled water and used within one hour.
The selective 5-lipoxtgenase inhibitor, Zileuton (N-[1-benzo[b]thien-2-ylethyl]-N-hydroxyurea; J. Pharmacol Exp Ther. 1991; 256: 929-937), was kindly provided by Drs. Bell and George W. Carter (Abbott Laboratories, Abbott Part, Ill.). Zileuton was dissolved in Trappsol.™. Histatek, Inc. (Seattle, Wash.) provided the mast cell degranulation inhibitor, f-Met-Leu-Phe-Phe (“HK-X”).
Female BALB/c […] (6-8 wk of age at purchase; D and K, Seattle Wash.) were housed under conventional conditions for the studies.
Allergen Immunization/Challenge Protocols: Mice received an i.p. injection of 0.2 ml (100 μg) of OVA with alum on the different protocols of Standard (FIG. 5A) and Resolution (FIG. 5B) (J. Exp Med. 1996; 184: 1483-1494). According to the different protocols, mice were anesthetized with 0.2 ml i.p. of ketamine (0.44 mg/ml)/xylazine (6.3 mg/ml) in normal saline before receiving an intranasal (i.n.) does of 100 μg OVA in 0.05 ml normal saline and an i.n. dose of 50 μg OVA in 0.05 ml normal saline separately on different days. Two control groups were used. Accordingly, the first group received normal saline with alum i.p. and normal saline without alum i.n.; the second group received OVA with alum i.p., OVA without alum i.n., and normal saline, alone.
The trachea and left lung (the right lung is used for bronchoalveolar lavage (“BAL”)) were obtained and fixed in 10% neutral formaldehyde solution at room temperature for 6˜15 h. After being embedded in paraffin, the tissues were cut into 5-um sections and processed with the different staining or immunolabling further. Discombe's eosinophil staining was used for counting the cell numbers with the counterstain of methylene blue. The eosinophil number per unit airway area (2,200 μm^2) was determined by morphometry (J. Pathol. 1992; 166: 395-404; Am Rev Respir Dis. 1993; 147:448-456). Fibrosis was identified with the Masson's trichrome staining. Airway mucus was identified by the following staining method: methylene blue, hematoxylin and eosin, mucicarmine, alcian blue, and alcian blue/periodic acid-Schiff (PAS) reaction (Troyer, H., “Carbohydrates” in Principles and Techniques of Histochemistry, Little, Brown and Company, Boston, Mass., 1980: 89-121; Sheehan, D. C., et al., “Carbohydrates” in Theory and Practice of Histotechnology, Battle Press, Columbus, Ohio, 1980: 159-179) Mucin was stained with mucicarmine solution; metanil yellow counterstain was employed. Acidic mucin and sulfated mucosubstances were stained with alcian blue, pH 2.5; nuclear fast red counterstain was used. Neutral and acidic mucosubstances were identified by alcian blue, pH 2.5, and PAS reaction. The degree of mucus plugging of the airways (0.5-0.8 mm in diameter) was also assessed by morphometry. The percent occlusion of airway diameter by mucus was classified on a semiquantitative scale from 0 to 4+ as described in Figure Legends. The histologic and morphometric analyses were performed by individuals blinded to the protocol design. […]

[3] = tested on: OVA-sensitized/challenged mice; assay: OVA allergen-induced airway inflammation mouse model, 28-day protocol, HK-X i.n. before each challenge; settings: p=0.0128 compared to OVA without zileuton; data not shown
[4] = tested on: mast cell degranulation induced by Compound 48/80; assay: Rat skin model: inhibition of Compound 48/80-induced mast cell degranulation (capillary permeability, trypan blue); settings: 0.15 μg Compound 48/80; for % Degranulation: percent mast cell degranulation produced by 48/80, 100 nanomoles peptide
Experimental: The Rat Skin Model for Determination of Inhibition of Mast Cell Degranulation
In this model, the blood plasma of the experimental rat is labeled with the dye trypan blue. This soluble dye is carried in the bloodstream as a passive marker of plasma itself, and is excluded from live cells. Intact blood vessels, including the capillary system, retain this dye under normal circumstances. A compound, which induces degranulation of mast cells (resulting in leukotriene and histamine release), is injected into the skin to simulate allergen-induced degranulation. In these experiments, Compound 48/80 was used for this purpose. In the events following leukotriene and histamine release, capillary permeability is increased, and plasma, dyed blue, leaks from capillaries and dyes the skin surrounding the injection site blue. The area of bluing is a measure of the amount of Compound 48/80 injected.
A compound can be tested for “anti-leukotriene” and/or “anti-histamine” activity by mixing it with Compound 48/80 prior to injection.
The rat skin model was undertaken and validated. Various peptides were tested at a predetermined dose for anti-leukotriene and/or anti-histamine activity. The dose selected allowed a general comparison to f-Met-Leu-Phe, which was standard compound for comparison.
A “dose response” titration was performed for some compounds and compared with the standard compound. Observing serial decreases in the size areas of capillary permeability using serially smaller doses of the putative inhibitory compound validates the inhibition of leukotriene and/or histamine release observed in the initial predetermined dose test.
Reagents were obtained from Sigma or Aldrich, with the exception of ketamine, a veterinary anaesthetic that was obtained from various veterinary suppliers. The rats used were male Sprague-Dawley breed, 220-240 g at time of purchase from B&K International.
For the rat skin reaction, rats were anaesthetized with 0.25 ml 10 mg/ml ketamine. 1.0 ml trypan blue in saline (sterile filtered) was administered in a tail vein, and the back of the rat was shaved. Four intradermal injection sites per rat were used for test and control injections.
Compound 48/80 was prepared as a 1.5 mg/ml stock solution in saline. […] Serial dilutions in saline to working levels were prepared just prior to injection of each rat.
Peptides were prepared as a 23 mM stock solution in DMSO, and stored at −20° C. between experiments. At the time of use, the frozen stock solutions were thawed, and appropriate aliquots added to dilutions of Compound 48/80, along with appropriate amounts of DMSO, to result in the ratio of 5 μl DMSO to 0.1 ml aqueous Compound 48/80.
For injections, 0.1 ml […], +1/− test compounds were injected intradermally into anaesthetized, dyed, and shaved rats. Following a 15 minute incubation, the rats were sacrificed by cervical dislocation and the back skin was evulsed and placed on a light box. An image of the backlit skin was digitized using a CCD video capture camera and compatible hardware/software. The digitized image was analyzed using a scientific graphics analysis software package, and the areas of capillary permeability (bluing) were integrated and digital values were obtained for further analysis.
A dose response curve was generated using Compound 48/80 at various doses from ca. 0.01 μg through ca. 15 μg. […] A dose of 0.15 μg of Compound 48/80 was selected for conducting further tests.
Several f-Met-Leu peptides were tested for inhibition of induced degranulation in the rat skin model using 100 nanomoles of the test peptide and a dose of 0.15 μg Compound 48/80. An intrinsic zero-peptide-dose 48/80 control was included in each rat for each experiment, and the % of inhibition was expressed in relative terms to this control (0% inhibition). The percent mast cell degranulation produced by 48/80 was also determined.

CC(c1cc2ccccc2s1)N(O)C(N)=O (stereo not shown) [Zileuton, N-[1-benzo[b]thien-2-ylethyl]-N-hydroxyurea, reference compound]
decrease in number of eosinophils in the BAL fluid [1]: 82%
AIRWAY INFLUX OF EOSINOPHILS (%) ([2]; 1 month): 15.50%
AIRWAY INFLUX OF EOSINOPHILS (%) ([2]; 2 month): 11.66%
AIRWAY INFLUX OF EOSINOPHILS (%) ([2]; 3 month): 10.73%
% of plug of airway ([2]; 28 days): 16%
PERCENTAGE OF EOSINOPHILS IN AIRWAY TISSUE ([2]; 28 days of treatment): 15.8%
MUCUS PLUG SCORE IN AIRWAYS ([2]; 28 days, semiquantitative scale 0 to 4+): 1.3
reduction of airway eosinophils ([2]; through 1-3 month): could reduced eosinophils generally through 1-3 month
decrease in eosinophils recovered in the BAL fluid [3]: 89%

N-acetyl-Met-Leu-Phe [Example 3]
% Degranulation [4]: 98%

f-Met-Leu-Tyr [Example 10]
% Degranulation [4]: 30%

f-Met-Leu-Phe [Example 2, reference compound]
dose response, inhibition of degranulation induced by Compound 48/80 ([4]; doses of 0 to about 230 nM peptide, FIG. 2 / FIG. 3): Inhibition of degranulation induced by Compound 48/80 was clearly shown
% Degranulation [4]: 60%
